What was measured:
[1] = Metabolic stability in mouse intestinal homogenate (GIh); settings: for remaining at 1 h, 10 µM / remaining at 1 h, 10 μM: CES1–/–, mouse, intestinal homogenate; for Intestinal homogenate: supplementary CSV, unit not given, matches Table 1 % remaining at 1 h, in %
[2] = Metabolic stability in mouse plasma; settings: for Plasma: supplementary CSV, unit not given, matches Table 1 % remaining at 1 h, in %
[3] = Single time point pharmacokinetic screening, released DON in plasma and tumor of EL4 tumor-bearing mice; assay type: in vivo, C57BL/6/CES1–/– mice; settings: 1 mg/kg DON equivalent SC; 30 min
Experimental: C57BL/6/CES1^–/– mice were obtained as a gift from the United States Army Medical Research Institute of Chemical Defense, Maryland, USA; breeding was performed in the Johns Hopkins animal facility and was conducted according to protocols reviewed and approved by the Johns Hopkins Institutional Animal Care and Use Committee in compliance with the Association for Assessment and Accreditation of Laboratory Animal Care International (AAALAC) and the Public Health Service Policy on the Humane Care and Use of Laboratory Animals (PHS Policy). Male and female C57BL/6 mice (weighing between 25 and 30 g) 6–8 weeks of age were used for the study. The animals were maintained on a 12 h light–dark cycle with ad libitum access to food (certified laboratory food: Teklad 18% Protein Extruded Rodent Diet) and water. EL4 mouse lymphoma cells were obtained as a gift from the laboratory of Dr. Jonathan Powell (Johns Hopkins University, Baltimore, MD) and maintained in RPMI 1640 medium 1X (Corning, cat. no. 10-040-CV) with 10% (v/v) fetal bovine serum (Corning, cat. no. 35-011-CV), 1% (v/v) antimycotic/antibiotic (Corning, cat. no. 30-004-CI), 2 mM L-glutamine (Corning, cat. no. 25-005-CI), and 10 mM HEPES (Corning, cat. no. 25-060-CI) in a 5% (v/v) CO2 and 95% (v/v) air incubator prior to subcutaneous (SC) injection (1 × 10^6 cells in 0.2 mL of phosphate-buffered saline) on the flank of each mouse. […]

SMILES	remaining at 1 h, 10 µM [1]	Intestinal homogenate [1]	remaining at 1 h, 10 µM ([2]; CES1–/–, mouse, plasma)	Plasma [2]	remaining at 1 h, 10 μM [1]	preferential DON tumor versus plasma delivery [3]	remaining at 1 h, 10 μM ([2]; CES1–/–, mouse, plasma)
CC(C)(C)OC(=O)[C@H](CCC(=O)C=[N+]=[N-])NC(=O)[C@H](Cc1c[nH]c2ccccc12)NC(=O)CN1CCOCC1 [Prodrug P7, tert-Butyl (S)-2-((S)-3-(1H-Indol-3-yl)-2-(2-morpholinoacetamido)propanamido)-6-diazo-5-oxohexanoate]	83 ± 1%	83 ± 1	95 ± 3%				
COC(=O)[C@H](CCC(=O)C=[N+]=[N-])NC(=O)[C@H](Cc1c[nH]c2ccccc12)NC(C)=O [Prodrug P1, Methyl (S)-2-((S)-2-Acetamido-3-(1H-indol-3-yl)propanamido)-6-diazo-5-oxohexanoate]	4%	4 ± 0			< 10%		
CN(C)CC(=O)N[C@@H](CCc1ccccc1)C(=O)N[C@@H](CCC(=O)C=[N+]=[N-])C(=O)OC(C)(C)C [Prodrug P14, tert-Butyl (S)-6-Diazo-2-((S)-2-(2-(dimethylamino)acetamido)-4-phenylbutanamido)-5-oxohexanoate]	97 ± 3%	97 ± 3	102 ± 2%	102 ± 2		maintained the preferential DON tumor versus plasma delivery	
CCOC(=O)[C@H](CCC(=O)C=[N+]=[N-])NC(=O)[C@H](Cc1c[nH]c2ccccc12)NC(C)=O [Prodrug P2, Ethyl (S)-2-((S)-2-Acetamido-3-(1H-indol-3-yl)propanamido)-6-diazo-5-oxohexanoate]	2%	2 ± 0			< 10%		
CC(=O)N[C@@H](Cc1c[nH]c2ccccc12)C(=O)N[C@@H](CCC(=O)C=[N+]=[N-])C(=O)OC1CC1 [Prodrug P3, Cyclopropyl (S)-2-((S)-2-Acetamido-3-(1H-indol-3-yl)propanamido)-6-diazo-5-oxohexanoate]	6%	6 ± 0			< 10%		
CN(C)CC(=O)N[C@@H](Cc1c[nH]c2ccccc12)C(=O)N[C@@H](CCC(=O)C=[N+]=[N-])C(=O)OC(C)(C)C [Prodrug P9, tert-Butyl (S)-6-Diazo-2-((S)-2-(2-(dimethylamino)acetamido)-3-(1H-indol-3-yl)propanamido)-5-oxohexanoate]	66 ± 1%	66 ± 1	102 ± 2%	102 ± 2			
CC(=O)N[C@@H](Cc1c[nH]c2ccccc12)C(=O)N[C@@H](CCC(=O)C=[N+]=[N-])C(=O)OC(C)(C)C [Prodrug P5, tert-Butyl (S)-2-((S)-2-Acetamido-3-(1H-indol-3-yl)propanamido)-6-diazo-5-oxohexanoate]	99 ± 1%	99 ± 1	92 ± 1%	92 ± 1	> 50%		
CN(C)CC(=O)NCC(=O)N[C@@H](CCC(=O)C=[N+]=[N-])C(=O)OC(C)(C)C [Prodrug P18, tert-Butyl (S)-6-Diazo-2-(2-(2-(dimethylamino)acetamido)acetamido)-5-oxohexanoate]	97 ± 1%	97 ± 1	108 ± 1%	108 ± 1			
CNC(=O)[C@H](CCC(=O)C=[N+]=[N-])NC(=O)[C@H](Cc1c[nH]c2ccccc12)NC(C)=O [Prodrug P6, (S)-2-((S)-2-Acetamido-3-(1H-indol-3-yl)propanamido)-6-diazo-N-methyl-5-oxohexanamide]	77 ± 1%	77 ± 1	102 ± 1%	102 ± 1	> 50%		
CC(=O)N[C@@H](Cc1c[nH]c2ccccc12)C(=O)N[C@@H](CCC(=O)C=[N+]=[N-])C(=O)OCC1CC1 [Prodrug P4, Cyclopropylmethyl (S)-2-((S)-2-Acetamido-3-(1H-indol-3-yl)propanamido)-6-diazo-5-oxohexanoate]	1%	1 ± 0			< 10%		
CN(C)CC(=O)N[C@H](C(=O)N[C@@H](CCC(=O)C=[N+]=[N-])C(=O)OC(C)(C)C)c1ccccc1 [Prodrug P13, tert-Butyl (S)-6-Diazo-2-((S)-2-(2-(dimethylamino)acetamido)-2-phenylacetamido)-5-oxohexanoate]		92 ± 1		92 ± 1	92 ± 1%		92 ± 1%

Further lines, with some results ahead:

remaining at 1 h, 10 µM [1]	Intestinal homogenate [1]	remaining at 1 h, 10 µM ([2]; CES1–/–, mouse, plasma)	Plasma [2]	remaining at 1 h, 10 μM [1]	SMILES	preferential DON tumor versus plasma delivery [3]	remaining at 1 h, 10 μM ([2]; CES1–/–, mouse, plasma)
68 ± 1%	68 ± 1	98 ± 3%	98 ± 3		CN(C)CC(=O)N[C@@H](CC(C)(C)C)C(=O)N[C@@H](CCC(=O)C=[N+]=[N-])C(=O)OC(C)(C)C [Prodrug P21, tert-Butyl (S)-6-Diazo-2-((S)-2-(2-(dimethylamino)acetamido)-4,4-dimethylpentanamido)-5-oxohexanoate]		
67 ± 1%	67 ± 1	108 ± 1%	108 ± 1		CN(C)CC(=O)N[C@@H](Cc1ccc(F)cc1)C(=O)N[C@@H](CCC(=O)C=[N+]=[N-])C(=O)OC(C)(C)C [Prodrug P15, tert-Butyl (S)-6-Diazo-2-((S)-2-(2-(dimethylamino)acetamido)-3-(4-fluorophenyl)propanamido)-5-oxohexanoate]		
90 ± 3%	90 ± 3	92%	92 ± 0		CN(C)CC(=O)N[C@H](Cc1ccccc1)C(=O)N[C@@H](CCC(=O)C=[N+]=[N-])C(=O)OC(C)(C)C [Prodrug P12, tert-Butyl (S)-6-Diazo-2-((R)-2-(2-(dimethylamino)acetamido)-3-phenylpropanamido)-5-oxohexanoate]		
69 ± 7%	69 ± 7	99 ± 3%	99 ± 3		CN(C)CC(=O)N[C@@H](Cc1cccc(F)c1)C(=O)N[C@@H](CCC(=O)C=[N+]=[N-])C(=O)OC(C)(C)C [Prodrug P16, tert-Butyl (S)-6-Diazo-2-((S)-2-(2-(dimethylamino)acetamido)-3-(3-fluorophenyl)propanamido)-5-oxohexanoate]		
86 ± 4%	86 ± 4	99 ± 2%	99 ± 2		C[C@H](NC(=O)CN(C)C)C(=O)N[C@@H](CCC(=O)C=[N+]=[N-])C(=O)OC(C)(C)C [Prodrug P19, tert-Butyl (S)-6-Diazo-2-((S)-2-(2-(dimethylamino)acetamido)propanamido)-5-oxohexanoate]		
76 ± 1%	76 ± 1	70 ± 14%	70 ± 14		CN(C)CC(=O)N[C@@H](Cc1ccc(C(F)(F)F)cc1)C(=O)N[C@@H](CCC(=O)C=[N+]=[N-])C(=O)OC(C)(C)C [Prodrug P17, tert-Butyl (S)-6-Diazo-2-((S)-2-(2-(dimethylamino)acetamido)-3-(4-(trifluoromethyl)phenyl)propanamido)-5-oxohexanoate]		
79%	79 ± 0	98 ± 2%	98 ± 2		CC(C)C[C@H](NC(=O)CN(C)C)C(=O)N[C@@H](CCC(=O)C=[N+]=[N-])C(=O)OC(C)(C)C [Prodrug P20, tert-Butyl (S)-6-Diazo-2-((S)-2-(2-(dimethylamino)acetamido)-4-methylpentanamido)-5-oxohexanoate]		
87 ± 2%	87 ± 2	97 ± 2%	97 ± 2		CN(C)CC(=O)N[C@@H](Cc1cn(C)c2ccccc12)C(=O)N[C@@H](CCC(=O)C=[N+]=[N-])C(=O)OC(C)(C)C [Prodrug P10, tert-Butyl (S)-6-Diazo-2-((S)-2-(2-(dimethylamino)acetamido)-3-(1-methyl-1H-indol-3-yl)propanamido)-5-oxohexanoate]		

— publication PMC10683027, “Discovery of tert-Butyl Ester Based 6-Diazo-5-oxo-L-norleucine Prodrugs for Enhanced Metabolic Stability and Tumor Delivery” (Journal of Medicinal Chemistry, 2023)
